These results are taken from patent US11319299B2, “Substituted carboxamides as inhibitors of WDR5 protein-protein binding” (PROPELLON THERAPEUTICS INC., priority 2016, dated 2022).

This assay concerns the target WDR5 (Homo sapiens (Human), UniProt P61964). In words: Surface Plasmon Resonance (SPR) assay, KD and residence time. Type of assay: binding. Conditions: surface plasmon resonance (SPR) assay; read-out: WDR5 binding affinity (KD). (In general: Surface plasmon resonance follows binding to a sensor surface in real time, without labels.)
Consider `C[C@@H]1CN(c2cc(F)c(-c3cccnc3OC3CCCCC3)cc2NC(=O)c2c[nH]c(=O)cc2C(F)(F)F)C[C@H](C)N1C` [Example 207, N-[5-(2-cyclohexyloxypyridin-3-yl)-4-fluoro-2-[(3R,5S)-3,4,5-trimethylpiperazin-1-yl]phenyl]-6-oxo-4-(trifluoromethyl)-1H-pyridine-3-carboxamide], for which the Kd amounted to 6.69 nM.

For the compound `COc1ccc(CC(=O)N2CC=C(c3cc(NC(=O)c4c[nH]c(=O)cc4C(F)(F)F)c(N4C[C@@H](C)N(C)[C@@H](C)C4)cc3F)CC2)cc1` [Example 208, N-[4-fluoro-5-[1-[2-(4-methoxyphenyl)acetyl]-3,6-dihydro-2H-pyridin-4-yl]-2-[(3R,5S)-3,4,5-trimethylpiperazin-1-yl]phenyl]-6-oxo-4-(trifluoromethyl)-1H-pyridine-3-carboxamide], the Kd is 0.57 nM.

For `COCCOc1ccc(-c2cc(NC(=O)c3cn(C)c(=O)cc3C(F)(F)F)c(N3C[C@@H](C)N(C)[C@@H](C)C3)cc2F)cn1` [Example 209, N-(4-fluoro-5-(6-(2-methoxyethoxy)pyridin-3-yl)-2-((3S,5R)-3,4,5-trimethylpiperazin-1-yl)phenyl)-1-methyl-6-oxo-4-(trifluoromethyl)-1,6-dihydropyridine-3-carboxamide], the Kd came to 9.53 nM.

`C[C@@H]1CN(c2cc(F)c(-c3cnc(N4CCCC4)nc3)cc2NC(=O)c2cn(C)c(=O)cc2C(F)(F)F)C[C@H](C)N1C` [Example 210, N-[4-fluoro-5-(2-pyrrolidin-1-ylpyrimidin-5-yl)-2-[(3R,5S)-3,4,5-trimethylpiperazin-1-yl]phenyl]-1-methyl-6-oxo-4-(trifluoromethyl)pyridine-3-carboxamide]: the Kd was 3.86 nM.

As for `C[C@@H]1CN(c2cc(F)c(-c3cnc(N4CCOCC4)nc3)cc2NC(=O)c2sccc2C(F)(F)F)C[C@H](C)N1C` [Example 211, N-[4-fluoro-5-(2-morpholin-4-ylpyrimidin-5-yl)-2-[(3R,5S)-3,4,5-trimethylpiperazin-1-yl]phenyl]-3-(trifluoromethyl)thiophene-2-carboxamide], the Kd worked out at 120 nM.

Turning to `C[C@@H]1CN(c2cc(F)c(-c3cnc(N4CCOCC4)nc3)cc2NC(=O)c2cc(Cl)c(F)c(Cl)c2)C[C@H](C)N1C` [Example 212, 3,5-dichloro-4-fluoro-N-[4-fluoro-5-(2-morpholin-4-ylpyrimidin-5-yl)-2-[(3R,5S)-3,4,5-trimethylpiperazin-1-yl]phenyl]benzamide], the Kd came to 2.71 nM.

As to `C[C@@H]1CN(c2cc(F)c(-c3cnc(N4CCOCC4)nc3)cc2NC(=O)c2cccc(Cl)c2Cl)C[C@H](C)N1C` [Example 213, 2,3-dichloro-N-[4-fluoro-5-(2-morpholin-4-ylpyrimidin-5-yl)-2-[(3R,5S)-3,4,5-trimethylpiperazin-1-yl]phenyl]benzamide], the Kd stood at 6.91 nM.

With `C[C@@H]1CN(c2cc(F)c(-c3cnc(N(C)C)c(C#N)c3)cc2NC(=O)c2c[nH]c(=O)cc2C(F)(F)F)C[C@H](C)N1C` [Example 220, N-[5-[5-cyano-6-(dimethylamino)pyridin-3-yl]-4-fluoro-2-[(3R,5S)-3,4,5-trimethylpiperazin-1-yl]phenyl]-6-oxo-4-(trifluoromethyl)-1H-pyridine-3-carboxamide], the Kd turned out to be 2.25 nM.

For `C[C@@H]1CN(c2cc(F)c(-c3cnc(N4CCOCC4)c(Cl)c3)cc2NC(=O)c2c[nH]c(=O)cc2C(F)(F)F)C[C@H](C)N1C` [Example 222, N-[5-(5-chloro-6-morpholin-4-ylpyridin-3-yl)-4-fluoro-2-[(3R,5S)-3,4,5-trimethylpiperazin-1-yl]phenyl]-6-oxo-4-(trifluoromethyl)-1H-pyridine-3-carboxamide], the Kd came out at 1.34 nM.

In the case of `C[C@@H]1CN(c2cc(F)c(-c3cnc4c(c3)OCCO4)cc2NC(=O)c2c[nH]c(=O)cc2C(F)(F)F)C[C@H](C)N1C` [Example 223, N-[5-(2,3-dihydro-[1,4]dioxino[2,3-b]pyridin-7-yl)-4-fluoro-2-[(3R,5S)-3,4,5-trimethylpiperazin-1-yl]phenyl]-6-oxo-4-(trifluoromethyl)-1H-pyridine-3-carboxamide], the Kd is 1.63 nM.

For the compound `CN1CCN(c2cc(F)c(-c3cnc(N4CCOCC4)nc3)cc2NC(=O)c2c[nH]c(=O)cc2C(F)(F)F)CC1(C)C` [Example 225, N-[4-fluoro-5-(2-morpholin-4-ylpyrimidin-5-yl)-2-(3,3,4-trimethylpiperazin-1-yl)phenyl]-6-oxo-4-(trifluoromethyl)-1H-pyridine-3-carboxamide], the Kd amounted to 3000 nM.

As to `C[C@@H]1CN(c2cc(F)c(-c3ccnc(N4CCOCC4)c3)cc2NC(=O)c2cn(C)c(=O)cc2C(F)(F)F)C[C@H](C)N1C` [Example 226, N-[4-fluoro-5-(2-morpholin-4-ylpyridin-4-yl)-2-[(3R,5S)-3,4,5-trimethylpiperazin-1-yl]phenyl]-1-methyl-6-oxo-4-(trifluoromethyl)pyridine-3-carboxamide], the Kd was determined as 7.99 nM.

In the case of `C[C@@H]1CN(c2cc(F)c(-c3ccc(N4CCCC4)cc3)cc2NC(=O)c2cn(C)c(=O)cc2C(F)(F)F)C[C@H](C)N1C` [Example 227, N-[4-fluoro-5-(4-pyrrolidin-1-ylphenyl)-2-[(3R,5S)-3,4,5-trimethylpiperazin-1-yl]phenyl]-1-methyl-6-oxo-4-(trifluoromethyl)pyridine-3-carboxamide], the Kd was found to be 9.14 nM.

`C[C@@H]1CN(c2cc(F)c(-c3ccc(OCC4CC4)cc3)cc2NC(=O)c2cn(C)c(=O)cc2C(F)(F)F)C[C@H](C)N1C` [Example 228, N-[5-[4-(cyclopropylmethoxy)phenyl]-4-fluoro-2-[(3R,5S)-3,4,5-trimethylpiperazin-1-yl]phenyl]-1-methyl-6-oxo-4-(trifluoromethyl)pyridine-3-carboxamide]: the Kd was 7.26 nM.

As to `C[C@@H]1CN(c2cc(F)c(-c3cnc(N4CCOCC4)nc3)cc2NC(=O)c2cccc(F)c2F)C[C@H](C)N1C` [Example 229, 2,3-difluoro-N-[4-fluoro-5-(2-morpholin-4-ylpyrimidin-5-yl)-2-[(3R,5S)-3,4,5-trimethylpiperazin-1-yl]phenyl]benzamide], the Kd is 83 nM.

Consider `C[C@@H]1CN(c2cc(F)c(C3=CCN(C4CCCC4)CC3)cc2NC(=O)c2c[nH]c(=O)cc2C(F)(F)F)C[C@H](C)N1C` [Example 231, N-[5-(1-cyclopentyl-3,6-dihydro-2H-pyridin-4-yl)-4-fluoro-2-[(3R,5S)-3,4,5-trimethylpiperazin-1-yl]phenyl]-6-oxo-4-(trifluoromethyl)-1H-pyridine-3-carboxamide], for which the Kd turned out to be 2.51 nM.

For `COc1ccc(C(C)N2CC=C(c3cc(NC(=O)c4c[nH]c(=O)cc4C(F)(F)F)c(N4C[C@@H](C)N(C)[C@@H](C)C4)cc3F)CC2)cc1` (stereo partly drawn) [Example 232, N-[4-fluoro-5-[1-[1-(4-methoxyphenyl)ethyl]-3,6-dihydro-2H-pyridin-4-yl]-2-[(3R,5S)-3,4,5-trimethylpiperazin-1-yl]phenyl]-6-oxo-4-(trifluoromethyl)-1H-pyridine-3-carboxamide], the Kd was 2.72 nM.

On to `CCC(C)N1CC=C(c2cc(NC(=O)c3c[nH]c(=O)cc3C(F)(F)F)c(N3C[C@@H](C)N(C)[C@@H](C)C3)cc2F)CC1` (stereo partly drawn) [Example 233, N-[5-(1-butan-2-yl-3,6-dihydro-2H-pyridin-4-yl)-4-fluoro-2-[(3R,5S)-3,4,5-trimethylpiperazin-1-yl]phenyl]-6-oxo-4-(trifluoromethyl)-1H-pyridine-3-carboxamide], for which the Kd was determined as 3.89 nM.

One may read the Kd as the concentration at which binding is half-saturated.
